Type in all cases: functional
Experiment [1] relates to Mycobacterium tuberculosis. The experiment in a line: Antimycobacterial activity against multi-drug resistant Mycobacterium tuberculosis TN1811 after 5 days by spectrophotometry. The note with it: TN1811, 120 h.
Experiment [2] deals with Mycobacterium tuberculosis. In words: Antimycobacterial activity against multi-drug resistant Mycobacterium tuberculosis TN2557 after 5 days by spectrophotometry. The note with it: TN2557, 120 h.
Experiment [3] has as its system Mycobacterium tuberculosis. In words: Antimycobacterial activity against multi-drug resistant Mycobacterium tuberculosis TN565 after 5 days by spectrophotometry. The note with it: TN565, 120 h.
Experiment [4] relates to Mycobacterium tuberculosis. In words: Antimycobacterial activity against multi-drug resistant Mycobacterium tuberculosis TN576 after 5 days by spectrophotometry. To be noted: TN576, 120 h.
The subject of experiment [5] is Mycobacterium tuberculosis. The experiment in a line: Antimycobacterial activity against multi-drug resistant Mycobacterium tuberculosis TN702 after 5 days by spectrophotometry. The note with it: TN702, 120 h.
Experiment [6] concerns Mycobacterium tuberculosis. The experiment in a line: Antimycobacterial activity against multi-drug resistant Mycobacterium tuberculosis TN715 after 5 days by spectrophotometry. To be noted: TN715, 120 h.
Experiment [7] has as its system Mycobacterium tuberculosis. The experiment in a line: Antimycobacterial activity against multi-drug resistant Mycobacterium tuberculosis TN768 after 5 days by spectrophotometry. The note with it: TN768, 120 h.
In experiment [8] the test system is Mycobacterium tuberculosis. The experiment in a line: Antimycobacterial activity against multi-drug resistant Mycobacterium tuberculosis TN772 after 5 days by spectrophotometry. The note with it: TN772, 120 h.
Experiment [9] concerns Mycobacterium tuberculosis. In words: Antimycobacterial activity against multi-drug resistant Mycobacterium tuberculosis TN1195 after 5 days by spectrophotometry. To be noted: TN1195, 120 h.
Experiment [10] has as its system Mycobacterium tuberculosis. The experiment in a line: Antimycobacterial activity against multi-drug resistant Mycobacterium tuberculosis TN1314 after 5 days by spectrophotometry. The note with it: TN1314, 120 h.
Experiment [11] relates to Mycobacterium tuberculosis. In words: Antimycobacterial activity against multi-drug resistant Mycobacterium tuberculosis TN1618 after 5 days by spectrophotometry. To be noted: TN1618, 120 h.

≈ marks a conversion by molar mass, not a printed value.

What is called MIC is the least concentration at which growth counts as inhibited. Consider `O=C(CCSc1nnc(-c2ccncc2)s1)Nc1ccc(Cl)cc1`, for which the MIC stood at 0.03 µg/mL (≈ 0.0796 µM) in experiment [1]; 0.13 µg/mL (≈ 0.345 µM) in experiment [2]; 0.06 µg/mL (≈ 0.159 µM) in [3]; 0.06 µg/mL (≈ 0.159 µM) in experiment [4]; 0.25 µg/mL (≈ 0.663 µM) in experiment [5]; 0.06 µg/mL (≈ 0.159 µM) in experiment [6]. In addition, the MIC in [7] stood at 0.06 µg/mL (≈ 0.159 µM); in experiment [8] it was 0.03 µg/mL (≈ 0.0796 µM); in experiment [9] it was 0.25 µg/mL (≈ 0.663 µM); in [10], 0.03 µg/mL (≈ 0.0796 µM); in experiment [11], 0.06 µg/mL (≈ 0.159 µM).
